Data as given in paper PMC7782499, “Progerinin, an optimized progerin-lamin A binding inhibitor, ameliorates premature senescence phenotypes of Hutchinson-Gilford progeria syndrome” (Communications Biology, 2021).
Values joined by “and” are separate entries in the source; they are usually repeats but may differ in a detail not shown here. Equal entries are not always repeated.

System: Lmna G609G/+ mouse
Test: Body weight of Lmna G609G/+ mice
Type: in vivo
Details: for Lmna G609G/+ body weight, Ave: group average; for Lmna G609G/+ body weight: individual mouse
Excerpt: Fig. 3 In vivo favorable effect of SLC-D011. A Gross morphology of Lmna^G609G/G609G mice (10 weeks old) was ameliorated after injection with SLC-D011. At the same age, the experimental group (D011) of mice were larger than vehicle-injected control (Con) subjects regardless of gender. B, C SLC-D011 increases body weight B and extends life span C of Lmna^G609G/G609G progeria model mouse (Con: n = 8; SLC-D011: n = 8). Compared with 14.8 weeks of average (ave) life span with maximum (max) life span of 15.5 weeks, 20 mg/kg of intraperitoneal (i.p) injection (twice a week) of SLC-D011 could extend the life span upto 19 weeks (max = 21 weeks). Lmna^G609G/G609G mice were injected with SLC-D011 from age of 5-week old, *p < 0.05. D Gross morphology of SLC-D011 injected Lmna^G609G/+ mouse. […] E SLC-D011 increases body weights of Lmna^G609G/+ mice (Con: n = 10; SLC-D011: n = 11), *p < 0.05. F Favorable effect of SLC-D011 on life span of Lmna^G609G/+ mice. Compared with vehicle-injected control group (ave = 46.7 weeks and max = 48 weeks), SLC-D011 treatment obviously extended the average life span to 63 weeks (max = 64 weeks). The injection was started from 32 weeks old, **p < 0.001. “Con” means vehicle (a solvent composed of DMSO and PBS)-injected mouse group. TEXT PRINTED IN THE PICTURE: (C) D011: Kaplan-Meier survival curve in Lmna^G609G/G609G: Ave=19; Kaplan-Meier survival curve in Lmna^G609G/G609G: Max=21 | (F) D011: Kaplan-Meier survival curve in Lmna^G609G/+: Ave=63; Kaplan-Meier survival curve in Lmna^G609G/+: Max=64 DOUBTS OF THE COPYIST ABOUT THIS PICTURE: Panels C and F: the Ave/Max labels are not printed with a group name. They are assigned to D011 (solid curve) or Con (dashed curve) only by their position beside the curves. / Panel C Ave=14.8, Max=15.5 and panel F Ave=46.7, Max=48 stand beside the dashed Con curve. They are left out because Con is the control group, not a substance. / No unit is printed with the Ave/Max values. Only the axis reads Age (weeks).
Animal experiments were performed in a facility certified by the Association for Assessment and Accreditation of Laboratory Animal Care in compliance with animal policies approved by Pusan National University. The mouse work was performed under the study protocol PNU-2019-2181, as approved by the Institutional Animal Care and Use Committee. Lmna^G609G/609G mice were generated by timed mating of heterozygous Lmna^G609G/+ provided by Carlos López-Otín (Universidad de Oviedo, Asturias, Oviedo, Spain). SLC-D011 was mixed with dimethyl sulfoxide (DMSO) and phosphate-buffered saline (PBS). It was then intraperitoneally injected into mice (20 mg/kg twice per week from 5-week-old). SLC-D011 and lonafarnib were orally administrated to mice daily at a concentration of 10 mg/ml in monoolein-based solution. Lonafarnib was generously provided by Merck, the Progeria Research Foundation (PRF) and the PRF Lonafarnib Pre-clinical Drug Supply Program. Control mice were treated with monoolein-based solution alone in the same way. Lmna^G609G/609G mice were treated with clear chemical solution throughout the life span, starting from 5 weeks of age. Lmna^G609G/+ mice were treated via intraperitoneal and oral administrations, starting from 32 weeks of age.
Fig. S10. Or al administration of SLC-D011 suppresses premature aging features of LmnaG609G/+ mi c e . A.
Gross morphology of SLC-D011 treated Lmna G609G/+ mice at 36 weeks old. B. Oral administration of SLC-
D011 increases body weight s of LmnaG609G/+ mi c e (untreated: n=11; SLC-D011: n=12), * p<0.05. C. […]
intensity of H3K9me3 levels in lung, liver, and kidney tissues of age-matched Lmn a +/+ mouse, untreated
LamnG609G/+ mouse and two progerinin- treated LmnaG609G/+ mice (n = 2 independent experiments; one
Student’s t -test), **p < 0.001,*p< 0.05, N.S: not significant .AU, arbitrary units.
Fig. S12. […] A. SLC-D011, compar ed to lonafarnib, reduces […]

[1] = column after week 64 (head empty), IP injection with SLC-D011, ratio to week 32
[2] = week 32, IP injection with SLC-D011, ratio to week 32
[3] = week 33, IP injection with SLC-D011, ratio to week 32
[4] = week 34, IP injection with SLC-D011, ratio to week 32
[5] = week 35, IP injection with SLC-D011, ratio to week 32
[6] = week 36, IP injection with SLC-D011, ratio to week 32
[7] = week 37, IP injection with SLC-D011, ratio to week 32
[8] = week 38, IP injection with SLC-D011, ratio to week 32
[9] = week 39, IP injection with SLC-D011, ratio to week 32
[10] = week 40, IP injection with SLC-D011, ratio to week 32
[11] = week 41, IP injection with SLC-D011, ratio to week 32
[12] = week 42, IP injection with SLC-D011, ratio to week 32
[13] = week 43, IP injection with SLC-D011, ratio to week 32
[14] = week 44, IP injection with SLC-D011, ratio to week 32
[15] = week 45, IP injection with SLC-D011, ratio to week 32
[16] = week 46, IP injection with SLC-D011, ratio to week 32
[17] = week 47, IP injection with SLC-D011, ratio to week 32
[18] = week 48, IP injection with SLC-D011, ratio to week 32
[19] = week 49, IP injection with SLC-D011, ratio to week 32
[20] = week 50, IP injection with SLC-D011, ratio to week 32
[21] = week 51, IP injection with SLC-D011, ratio to week 32
[22] = week 52, IP injection with SLC-D011, ratio to week 32
[23] = week 53, IP injection with SLC-D011, ratio to week 32
[24] = week 54, IP injection with SLC-D011, ratio to week 32
[25] = week 55, IP injection with SLC-D011, ratio to week 32
[26] = week 56, IP injection with SLC-D011, ratio to week 32
[27] = week 57, IP injection with SLC-D011, ratio to week 32
[28] = week 58, IP injection with SLC-D011, ratio to week 32
[29] = week 59, IP injection with SLC-D011, ratio to week 32
[30] = week 60, IP injection with SLC-D011, ratio to week 32
[31] = week 61, IP injection with SLC-D011, ratio to week 32
[32] = week 62, IP injection with SLC-D011, ratio to week 32
[33] = week 63, IP injection with SLC-D011, ratio to week 32
[34] = week 64, IP injection with SLC-D011, ratio to week 32

With `CC1(C)Oc2cc3oc(=O)ccc3cc2C[C@@H]1OC/C=C/c1ccccc1` [SLC-D011] the “Lmna G609G/+ body weight, Ave” value [1] was 0, the “Lmna G609G/+ body weight” value [1] was 0 and the “Lmna G609G/+ body weight, Ave” value (oral administration, week 36, relative body weight) was 1. The “Lmna G609G/+ body weight, Ave” value (oral administration, week 38, relative body weight) was 1.017, the “Lmna G609G/+ body weight, Ave” value (oral administration, week 40, relative body weight) was 1.063 and the “Lmna G609G/+ body weight, Ave” value (oral administration, week 42, relative body weight) was 0.9995. For the same molecule, the “Lmna G609G/+ body weight, Ave” value (oral administration, week 44, relative body weight) was 0.9298, the “Lmna G609G/+ body weight, Ave” value (oral administration, week 46, relative body weight) was 0.9013 and the “Lmna G609G/+ body weight, Ave” value (oral administration, week 48, relative body weight) was 0.862. For the same molecule, the “Lmna G609G/+ body weight, Ave” value (oral administration, week 50, relative body weight) was 0.8331, the “Lmna G609G/+ body weight, Ave” value (oral administration, week 52, relative body weight) was 0.7877 and the “Lmna G609G/+ body weight, Ave” value (oral administration, week 54, relative body weight) was 0.7841. The “Lmna G609G/+ body weight, Ave” value (oral administration, week 56, relative body weight) was 0.7247, the “Lmna G609G/+ body weight, Ave” value (oral administration, week 58, relative body weight) was 0.7038 and the “Lmna G609G/+ body weight, Ave” value (oral administration, week 60, relative body weight) was 0.6602. For the same molecule, the “Lmna G609G/+ body weight, Ave” value (oral administration, week 62, relative body weight) was 0.5992, the “Lmna G609G/+ body weight, Ave” value (oral administration, week 64, relative body weight) was 0.3905 and the “Lmna G609G/+ body weight, Ave” value (oral administration, week 66, relative body weight) was 0. The “Lmna G609G/+ body weight, Ave” value [2] was 1, the “Lmna G609G/+ body weight” value [2] was 1 and the “Lmna G609G/+ body weight, Ave” value [3] was 1.01. For the same molecule, the “Lmna G609G/+ body weight” value [3] was 1 and 1.038, the “Lmna G609G/+ body weight, Ave” value [4] was 1.003 and the “Lmna G609G/+ body weight” value [4] was 1 and 0.9583 and 1.038. For the same molecule, the “Lmna G609G/+ body weight, Ave” value [5] was 0.9948, the “Lmna G609G/+ body weight” value [5] was 1 and 0.9167 and 1.038 and the “Lmna G609G/+ body weight, Ave” value [6] was 0.9886. The “Lmna G609G/+ body weight” value [6] was 1 and 0.9583, the “Lmna G609G/+ body weight, Ave” value [7] was 0.9733 and the “Lmna G609G/+ body weight” value [7] was 1 and 0.9167. For the same molecule, the “Lmna G609G/+ body weight, Ave” value [8] was 0.9619, the “Lmna G609G/+ body weight” value [8] was 0.9565 and 0.9167 and 1 and the “Lmna G609G/+ body weight, Ave” value [9] was 0.9549. The “Lmna G609G/+ body weight” value [9] was 0.9565 and 0.9167 and 0.9615, the “Lmna G609G/+ body weight, Ave” value [10] was 0.925 and the “Lmna G609G/+ body weight” value [10] was 0.913 and 0.875 and 0.9615 and 0.963. For the same molecule, the “Lmna G609G/+ body weight, Ave” value [11] was 0.925, the “Lmna G609G/+ body weight” value [11] was 0.913 and 0.875 and 0.9615 and 0.963 and the “Lmna G609G/+ body weight, Ave” value [12] was 0.9069. For the same molecule, the “Lmna G609G/+ body weight” value [12] was 0.913 and 0.8333 and 0.9231 and 0.963, the “Lmna G609G/+ body weight, Ave” value [13] was 0.9077 and the “Lmna G609G/+ body weight” value [13] was 0.913 and 0.875 and 0.9231 and 0.9259. For the same molecule, the “Lmna G609G/+ body weight, Ave” value [14] was 0.8732, the “Lmna G609G/+ body weight” value [14] was 0.8696 and 0.7917 and 0.9231 and 0.9259 and the “Lmna G609G/+ body weight, Ave” value [15] was 0.8778. The “Lmna G609G/+ body weight” value [15] was 0.8696 and 0.8333 and 0.9231 and 0.8889, the “Lmna G609G/+ body weight, Ave” value [16] was 0.8769 and the “Lmna G609G/+ body weight” value [16] was 0.8696 and 0.7917 and 0.9615 and 0.8889. The “Lmna G609G/+ body weight, Ave” value [17] was 0.8478, the “Lmna G609G/+ body weight” value [17] was 0.8261 and 0.7917 and 0.9231 and 0.8519 and the “Lmna G609G/+ body weight, Ave” value [18] was 0.8359. The “Lmna G609G/+ body weight” value [18] was 0.8261 and 0.75 and 0.9231 and 0.8519, the “Lmna G609G/+ body weight, Ave” value [19] was 0.8036 and the “Lmna G609G/+ body weight” value [19] was 0.7826 and 0.75 and 0.8846 and 0.7778. For the same molecule, the “Lmna G609G/+ body weight, Ave” value [20] was 0.8111, the “Lmna G609G/+ body weight” value [20] was 0.7826 and 0.7917 and 0.8846 and 0.7778 and the “Lmna G609G/+ body weight, Ave” value [21] was 0.8111. The “Lmna G609G/+ body weight” value [21] was 0.7826 and 0.7917 and 0.8846 and 0.7778, the “Lmna G609G/+ body weight, Ave” value [22] was 0.7901 and the “Lmna G609G/+ body weight” value [22] was 0.7826 and 0.75 and 0.8462. For the same molecule, the “Lmna G609G/+ body weight, Ave” value [23] was 0.7931, the “Lmna G609G/+ body weight” value [23] was 0.7826 and 0.7917 and 0.8462 and the “Lmna G609G/+ body weight, Ave” value [24] was 0.7747. For the same molecule, the “Lmna G609G/+ body weight” value [24] was 0.7391 and 0.7917 and 0.8077, the “Lmna G609G/+ body weight, Ave” value [25] was 0.7712 and the “Lmna G609G/+ body weight” value [25] was 0.7391 and 0.7917 and 0.8077. The “Lmna G609G/+ body weight, Ave” value [26] was 0.7636, the “Lmna G609G/+ body weight” value [26] was 0.7391 and 0.75 and 0.8077 and the “Lmna G609G/+ body weight, Ave” value [27] was 0.7611. For the same molecule, the “Lmna G609G/+ body weight” value [27] was 0.7391 and 0.75 and 0.8077, the “Lmna G609G/+ body weight, Ave” value [28] was 0.746 and the “Lmna G609G/+ body weight” value [28] was 0.6957 and 0.6667 and 0.8077. For the same molecule, the “Lmna G609G/+ body weight, Ave” value [29] was 0.6892, the “Lmna G609G/+ body weight” value [29] was 0.7391 and 0 and 0.8077 and the “Lmna G609G/+ body weight, Ave” value [30] was 0.6894. The “Lmna G609G/+ body weight” value [30] was 0.6957 and 0.7692, the “Lmna G609G/+ body weight, Ave” value [31] was 0.6156 and the “Lmna G609G/+ body weight” value [31] was 0.6087 and 0.7692. For the same molecule, the “Lmna G609G/+ body weight, Ave” value [32] was 0.5947, the “Lmna G609G/+ body weight” value [32] was 0 and 0.6923 and the “Lmna G609G/+ body weight, Ave” value [33] was 0.5548. The “Lmna G609G/+ body weight” value [33] was 0.6923, the “Lmna G609G/+ body weight, Ave” value [34] was 0.2637 and the “Lmna G609G/+ body weight” value [34] was 0.6154.
